In general, IC50 refers to the concentration that gives 50% inhibition. Read a high IC50 as lower potency.

For ten compounds, IC50 and selectivity ratio results are on record in ChEMBL document CHEMBL1817646, “Chromomycin SA analogs from a marine-derived Streptomyces sp” (Bioorg Med Chem, 2011).

Series [1] is described as follows: Cytotoxicity against human HCC44 cells after 96 hrs by Cell Titer Glo assay. It is filed as functional, cell-based. The settings on record: HCC44, 96 h. A general note: In ATP-based viability assays light output follows the ATP content of the culture.
Another series has as its system A549. Nature of the series: Cytotoxicity against human A549 cells after 96 hrs by Cell Titer Glo assay. The format is functional, cell-based. The settings on record: A549, 96 h.
Series [2] in a line: Ratio IC50 for compound to mithramycin IC50 for mouse 3T3 cells. Conditions: NIH3T3 cells, read-out: Ratio IC50. It is filed as cell-based.

Regarding `CO[C@@H]1[C@H](O)C[C@@H](O[C@@H]2C[C@H](Oc3cc4cc5c(c(O)c4c(O)c3C)C(=O)[C@@H](O[C@H]3C[C@@H](O[C@H]4C[C@@H](O[C@H]6C[C@](C)(O)[C@@H](OC(C)=O)[C@H](C)O6)[C@H](O)[C@@H](C)O4)[C@H](O)[C@@H](C)O3)[C@H]([C@H](OC)C(=O)[C@@H](O)[C@@H](C)O)C5)O[C@H](C)[C@@H]2OC(C)=O)O[C@@H]1C` [CHROMOMYCIN A3], the half-inhibitory concentration (IC50) amounted to 1 nM in series [1] and 42 nM with A549.

Consider `COC(=O)[C@@H](OC)[C@@H]1Cc2cc3cc(O[C@H]4C[C@@H](O[C@@H]5C[C@@H](O)[C@H](OC)[C@@H](C)O5)[C@H](OC(C)=O)[C@@H](C)O4)c(C)c(O)c3c(O)c2C(=O)[C@H]1O[C@H]1C[C@H](O[C@H]2C[C@H](O[C@H]3C[C@@](C)(O)[C@@H](OC(=O)C(C)C)[C@H](C)O3)[C@H](O)[C@@H](C)O2)[C@H](O)[C@@H](C)O1`, for which the IC50 in series [1] was found to be 56 nM. In other words, the double-digit nanomolar range.

Take `CO[C@H]1[C@H](O)C[C@@H](O[C@@H]2C[C@H](Oc3cc4cc5c(c(O)c4c(O)c3C)C(=O)[C@@H](O[C@H]3C[C@H](O[C@H]4C[C@H](O[C@H]6C[C@@](C)(O)[C@@H](OC(C)=O)[C@H](C)O6)[C@H](O)[C@@H](C)O4)[C@H](O)[C@@H](C)O3)[C@H]([C@H](OC)C(=O)O)C5)O[C@H](C)[C@H]2OC(C)=O)O[C@@H]1C` [CHROMOMYCIN SA]: the IC50 in series [1] is 210 nM; with A549, 560 nM.

Take `CO[C@H]1[C@H](O)C[C@@H](O[C@@H]2C[C@H](Oc3cc4cc5c(c(O)c4c(O)c3C)C(=O)[C@@H](O[C@H]3C[C@H](O[C@H]4C[C@H](O[C@H]6C[C@@](C)(O)[C@@H](O)[C@H](C)O6)[C@H](O)[C@@H](C)O4)[C@H](O)[C@@H](C)O3)[C@H]([C@H](OC)C(=O)[C@@H](O)[C@@H](C)O)C5)O[C@H](C)[C@H]2OC(C)=O)O[C@@H]1C` [DEACETYL CHROMOMYCIN A3]: the values for the concentration for half-maximal inhibition (IC50) (in series [1]; in the series on A549) were 670 nM and 1200 nM, respectively.

For the compound `CO[C@H]1[C@H](O)C[C@@H](O[C@@H]2C[C@H](Oc3cc4cc5c(c(O)c4c(O)c3C)C(=O)[C@@H](O[C@H]3C[C@H](O[C@H]4C[C@H](O[C@H]6C[C@@](C)(O)[C@@H](O)[C@H](C)O6)[C@H](O)[C@@H](C)O4)[C@H](O)[C@@H](C)O3)[C@H]([C@H](OC)C(=O)O)C5)O[C@H](C)[C@H]2OC(C)=O)O[C@@H]1C` [CHROMOMYCIN SA3], the half-inhibitory concentration (IC50) in series [1] was more than 33300 nM; in the series on A549, more than 50000 nM.

As to `CO[C@H]1[C@H](O)C[C@@H](O[C@@H]2C[C@H](Oc3cc4cc5c(c(O)c4c(O)c3C)C(=O)[C@@H](O[C@H]3C[C@H](O[C@H]4C[C@H](O[C@H]6C[C@@](C)(O)[C@@H](OC(=O)C(C)C)[C@H](C)O6)[C@H](O)[C@@H](C)O4)[C@H](O)[C@@H](C)O3)[C@H]([C@H](OC)C(=O)O)C5)O[C@H](C)[C@H]2OC(C)=O)O[C@@H]1C` [CHROMOMYCIN SA2], the half-maximal inhibitory concentration (IC50) in series [1] came to 780 nM; in the series on A549, 1500 nM.

Take `CO[C@H]1[C@H](O)C[C@@H](O[C@@H]2C[C@H](Oc3cc4cc5c(c(O)c4c(O)c3C)C(=O)[C@@H](O[C@H]3C[C@H](O[C@H]4C[C@H](O[C@H]6C[C@@](C)(O)[C@@H](OC(=O)C(C)C)[C@H](C)O6)[C@H](O)[C@@H](C)O4)[C@H](O)[C@@H](C)O3)[C@H]([C@H](OC)C(=O)[C@@H](O)[C@@H](C)O)C5)O[C@H](C)[C@H]2OC(C)=O)O[C@@H]1C` [CHROMOMYCIN A2]: the IC50 in series [1] was determined as 0.26 nM; with A549 it was 0.44 nM.

`COC(=O)[C@@H](OC)[C@@H]1Cc2cc3cc(O[C@H]4C[C@@H](O[C@@H]5C[C@@H](O)[C@H](OC)[C@@H](C)O5)[C@H](OC(C)=O)[C@@H](C)O4)c(C)c(O)c3c(O)c2C(=O)[C@H]1O[C@H]1C[C@H](O[C@H]2C[C@H](O[C@H]3C[C@@](C)(O)[C@@H](O)[C@H](C)O3)[C@H](O)[C@@H](C)O2)[C@H](O)[C@@H](C)O1` showed an IC50 in series [1] of 3400 nM.

Turning to `CO[C@H](C(=O)[C@@H](O)[C@@H](C)O)[C@@H]1Cc2cc3cc(O[C@H]4C[C@@H](O[C@H]5C[C@@H](O)[C@H](O)[C@@H](C)O5)[C@H](O)[C@@H](C)O4)c(C)c(O)c3c(O)c2C(=O)[C@H]1O[C@H]1C[C@@H](O[C@H]2C[C@@H](O[C@H]3C[C@](C)(O)[C@H](O)[C@@H](C)O3)[C@@H](O)[C@@H](C)O2)[C@H](O)[C@@H](C)O1` [PLICAMYCIN], the selectivity ratio in series [2] came to 1500.

For `CO[C@H]1[C@H](O)C[C@@H](O[C@@H]2C[C@H](Oc3cc4cc5c(c(O)c4c(O)c3C)C(=O)[C@@H](O[C@H]3C[C@H](O[C@H]4C[C@H](O[C@H]6C[C@@](C)(O)[C@@H](O)[C@H](C)O6)[C@H](O)[C@@H](C)O4)[C@H](O)[C@@H](C)O3)[C@H]([C@H](OC)C(=O)[C@@H](O)[C@@H](C)O)C5)O[C@H](C)[C@H]2O)O[C@@H]1C`, the IC50 (in series [1]; with A549) was more than 50000 nM each time.
